Values of other authors as cited in US20040142045A1, “THERAPEUTIC TREATMENT FOR BLOOD SUGAR REGULATION” (priority 2003, published 2004).
Where two headings read alike, the source gives them in different places.

What was measured:
[1] = mice with abnormally high glucose concentrations
[2] = diabetics, dietary supplementation
[3] = another study, supplementation
[4] = system: glucokinase; conditions: supplementation
[5] = insulin dependent diabetes mellitus
[6] = diabetic animals
[7] = animal models of insulin resistance and Type 2 diabetic patients
[8] = experimental animals
[9] = Type 1 and Type 2 diabetics, supplementation

methylhydroxy chalcone polymer
glucose concentrations [1]: fell dramatically

[Cr] [chromium]
fasting blood glucose levels [2]: decrease

O=S(=O)([O-])[O-].[O]=[V+2] [vanadyl sulfate]
fasting blood glucose and hepatic insulin resistance [3]: modest reductions

O=C(O)CCCC[C@@H]1SC[C@@H]2NC(=O)N[C@@H]21 [Biotin]
activity of glucokinase [4]: increase | fasting blood glucose levels [5]: significant reduction

O=C(O)CCCCC1CCSS1 (stereo not drawn) [Alpha lipoic acid]
blood glucose levels [6]: lower | glucose uptake into the peripheral tissues [6]: enhanced | insulin regulated glucose disposal [7]: improve

NC(=O)c1cccnc1 [Nicotinamide]
development of diabetes [8]: prevent

[Zn] [Zinc]
insulin levels [9]: improve
